Data on 21 compounds can be found in patent EP4737451A1 (Dong Wha Pharm. Co., Ltd., priority 2023, dated 2025).

For one experiment, the target named is T1, IRAK4 enzyme (Homo sapiens, UniProt Q9NWZ3).
T1 construct: purchased Promega V2621
T1 sequence (Q9NWZ3 1-460): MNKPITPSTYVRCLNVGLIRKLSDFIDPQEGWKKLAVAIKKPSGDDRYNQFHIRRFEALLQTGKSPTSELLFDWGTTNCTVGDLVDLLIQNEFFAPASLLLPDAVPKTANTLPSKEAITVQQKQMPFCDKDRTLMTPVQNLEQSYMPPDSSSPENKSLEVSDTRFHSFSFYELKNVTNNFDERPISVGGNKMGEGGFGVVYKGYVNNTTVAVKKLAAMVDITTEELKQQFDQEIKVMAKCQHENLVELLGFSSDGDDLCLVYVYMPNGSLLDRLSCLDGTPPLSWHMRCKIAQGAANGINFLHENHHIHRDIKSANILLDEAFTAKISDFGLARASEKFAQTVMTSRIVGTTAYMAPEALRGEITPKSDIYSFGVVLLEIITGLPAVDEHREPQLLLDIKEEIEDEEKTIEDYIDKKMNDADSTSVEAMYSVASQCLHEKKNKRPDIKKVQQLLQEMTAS
Description: IRAK4 enzyme activity inhibition (ADP-Glo, Promega kit). Conditions: for inhibition at 0.1 µM: test compound 0.1 uM; for inhibition at 1 µM: test compound 1 uM. The class given is biochemical. Here is the method: An experiment on IRAK4 enzyme activity inhibition of the compound of the present invention was conducted.
An IRAK4 enzyme kit (purchased from Promega, product number: V2621) was used to dilute a mixed solution between 0.1 µg/µL of myelin basic protein (MBP), which is an enzyme-reactive substrate, and 1.25 mM of ATP with a reaction buffer (40 mM Tris-HCl, pH 7.5; 20 mM MgCl2; 0.1 mg/mL BSA; 50 µM DTT) according to the instructions, so as to dispense 2 µL in a 384-well white plate, and then to add 1 µL of a test compound, which was gradient diluted starting from 1 mM, to a 384-well plate. After that, an IRAK4 enzyme was diluted with a reaction buffer to a final concentration of 5 ng/µL, then 2 µL/well was dispensed into a 384-well white plate and reacted at 37°C for 60 minutes. After completion of a reaction, an ADP-GloTM enzyme test kit (purchased from Promega, product number: V9102) was used to add 5 µL of ADP-Glo reaction reagent and cause a reaction at 37°C for 40 minutes, and then 10 µL of enzyme chromogenic reagent was added again to measure a luminescence signal using equipment for measuring absorbance (THECAN, Microplate Reader). An activity inhibition rate was calculated from a measured value, and a 50% inhibition concentration (IC50 value) was analyzed through a non-linear regression analysis based on the % inhibition for each concentration of the test compound, and is shown in Table 2.
(In general: ADP-Glo turns the ADP formed in a reaction into a luminescent signal.)

A further experiment addresses T2, IRAK1 enzyme (Homo sapiens, UniProt P51617).
T2 construct: purchased Promega VA7477
Put plainly: IRAK1 enzyme activity inhibition (ADP-Glo, Promega kit). The class given is biochemical. The conditions noted are these: for inhibition at 0.1 µM: test compound 0.1 uM; for inhibition at 1 µM: test compound 1 uM. Here is the method: An experiment on IRAK1 enzyme activity inhibition of the compound of the present invention was conducted.
An IRAK1 enzyme kit (purchased from Promega, product number: VA7477) was used to dilute a mixed solution between 0.1 µg/µL of protein kinase B (AKT), which is an enzyme-reactive substrate, and 1.25 mM of ATP with a reaction buffer (40 mM Tris-HCl, pH 7.5; 20 mM MgCl2; 0.1 mg/mL BSA; 50 µM DTT) according to the instructions, so as to dispense 2 µL in a 384-well white plate, and then to add 1 µL of a test compound, which was gradient diluted starting from 1 mM, to a 384-well white plate. After that, an IRAK1 enzyme was diluted with a reaction buffer to a final concentration of 5 ng/µL, then 2 µL/well was dispensed into a 384-well white plate and reacted at 37°C for 60 minutes. After completion of a reaction, an ADP-GloTM enzyme test kit (purchased from Promega, product number: V9102) was used to add 5 µL of ADP-Glo reaction reagent and cause a reaction at 37°C for 40 minutes, and then 10 µL of enzyme chromogenic reagent was added again to measure a luminescence signal using equipment for measuring absorbance (THECAN, Microplate Reader). An activity inhibition rate was calculated from a measured value, and a 50% inhibition concentration (IC50 value) was analyzed through a non-linear regression analysis based on the % inhibition for each concentration of the test compound, and is shown in Table 3.

Molecules are shown by their SMILES.

T2 sequence (P51617 whole entry): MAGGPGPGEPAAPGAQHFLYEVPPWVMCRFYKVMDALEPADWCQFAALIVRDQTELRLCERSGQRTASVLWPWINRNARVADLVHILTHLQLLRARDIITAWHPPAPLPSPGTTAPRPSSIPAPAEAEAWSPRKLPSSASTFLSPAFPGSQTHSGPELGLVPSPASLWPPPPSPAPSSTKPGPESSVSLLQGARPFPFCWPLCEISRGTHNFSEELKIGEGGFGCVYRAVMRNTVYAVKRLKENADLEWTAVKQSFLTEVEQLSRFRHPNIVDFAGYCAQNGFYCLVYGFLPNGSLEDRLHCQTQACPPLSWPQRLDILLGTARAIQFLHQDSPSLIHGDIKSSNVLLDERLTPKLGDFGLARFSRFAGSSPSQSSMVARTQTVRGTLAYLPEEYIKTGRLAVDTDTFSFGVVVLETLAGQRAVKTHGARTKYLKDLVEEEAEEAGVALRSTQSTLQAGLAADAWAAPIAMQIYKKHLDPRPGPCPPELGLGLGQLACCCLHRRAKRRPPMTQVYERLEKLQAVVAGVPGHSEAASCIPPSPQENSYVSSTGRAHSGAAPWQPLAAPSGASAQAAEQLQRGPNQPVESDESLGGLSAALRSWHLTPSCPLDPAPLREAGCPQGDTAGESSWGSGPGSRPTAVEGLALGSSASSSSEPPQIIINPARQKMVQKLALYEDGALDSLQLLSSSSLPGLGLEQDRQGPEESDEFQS

With `CN(C)CCn1cc2cc(NC(=O)c3cccc(C(N)=O)c3)c(-c3ccsc3)cc2n1` [Example 1, N-(2-(2-(dimethylamino)ethyl)-6-(thiophen-3-yl)-2H-indazol-5-yl)isophthalamide], the inhibition at 0.1 µM turned out to be 19.1% at IRAK4 enzyme and 42.4% on IRAK1 enzyme.

Consider `CC(C)(O)CCn1cc2cc(NC(=O)c3cccc([N+](=O)[O-])c3)c(-c3ccoc3)cc2n1` [Example 4, N-(6-(furan-3-yl)-2-(3-hydroxy-3-methylbutyl)-2H-indazol-5-yl)-3-nitrobenzamide], for which, on IRAK4 enzyme, the inhibition at 0.1 µM worked out at 42.1% and the inhibition at 1 µM was 67.4%.

At IRAK4 enzyme, `CC(C)(O)CCn1cc2cc(NC(=O)c3cncc([N+](=O)[O-])c3)c(-c3ccoc3)cc2n1` [Example 5, N-(6-(furan-3-yl)-2-(3-hydroxy-3-methylbutyl)-2H-indazol-5-yl)-5-nitronicotinamide] gave an inhibition at 0.1 µM of 27.9% and an inhibition at 1 µM of 35.4%.

In the case of `CC(C)(O)CCn1cc2cc(NC(=O)c3cccc(C(N)=O)c3)c(-c3ccoc3)cc2n1` [Example 6, N-(6-(furan-3-yl)-2-(3-hydroxy-3-methylbutyl)-2H-indazol-5-yl)isophthalamide], at IRAK4 enzyme, at 0.1 µM the inhibition was 35.5% and 1 µM produced 67% inhibition.

In the case of `CC(C)(O)CCn1cc2cc(NC(=O)c3cncc([N+](=O)[O-])c3)c(-c3ccsc3)cc2n1` [Example 7, N-(2-(3-hydroxy-3-methylbutyl)-6-(thiophen-3-yl)-2H-indazol-5-yl)-5-nitronicotinamide], at IRAK4 enzyme, the inhibition at 0.1 µM is 28.1% and the inhibition at 1 µM worked out at 57.7%.

As for `CC(C)(O)CCn1cc2cc(NC(=O)c3cccc([N+](=O)[O-])c3)c(-c3ccsc3)cc2n1` [Example 8, N-(2-(3-hydroxy-3-methylbutyl)-6-(thiophen-3-yl)-2H-indazol-5-yl)-3-nitrobenzamide], at IRAK4 enzyme, the inhibition at 0.1 µM is 21.7% and 1 µM produced 50.3% inhibition.

As to `O=C(Nc1cc2cn(CCN3CCCCC3)nc2cc1N1CCOCC1)c1cccc([N+](=O)[O-])c1` [Example 9, N-(6-morpholino-2-(2-(piperidin-1-yl)ethyl)-2H-indazol-5-yl)-3-nitrobenzamide], on IRAK4 enzyme, the inhibition at 0.1 µM is 56.9% and the inhibition at 1 µM amounted to 79.5%.

Consider `CN(C)CCn1cc2cc(NC(=O)c3cccc([N+](=O)[O-])c3)c(N3CCOCC3)cc2n1` [Example 10, N-(2-(2-(dimethylamino)ethyl)-6-morpholino-2H-indazol-5-yl)-3-nitrobenzamide], for which, on IRAK4 enzyme, the IC50 came out at 99.7 nM, 0.1 µM produced 49.5% inhibition and the inhibition at 1 µM came out at 83.4%.

At IRAK4 enzyme, `COCCn1cc2cc(NC(=O)c3cccc([N+](=O)[O-])c3)c(N3CCOCC3)cc2n1` [Example 11, N-(2-(2-methoxyethyl)-6-morpholino-2H-indazol-5-yl)-3-nitrobenzamide] returned an inhibition at 0.1 µM of 40.4% and an inhibition at 1 µM of 56.9%.

For `CN(C)CCn1cc2cc(NC(=O)c3cccc(-c4nccs4)c3)c(-c3ccsc3)cc2n1` [Example 12, N-(2-(2-(dimethylamino)ethyl)-6-(thiophen-3-yl)-2H-indazol-5-yl)-3-(thiazol-2-yl)benzamide], 0.1 µM produced 31.5% inhibition on IRAK4 enzyme.

For `CS(=O)(=O)CCn1cc2cc(NC(=O)c3cccc([N+](=O)[O-])c3)c(N3CCOCC3)cc2n1` [Example 13, N-(2-(2-(methylsulfonyl)ethyl)-6-morpholino-2H-indazol-5-yl)-3-nitrobenzamide], the inhibition at 0.1 µM against IRAK4 enzyme is 18.6%; against IRAK1 enzyme, 1.3%. In addition, the inhibition at 1 µM stood at 19.2% at IRAK4 enzyme and 0% at IRAK1 enzyme.

At IRAK4 enzyme, `CS(=O)(=O)CCn1cc2cc(NC(=O)c3cccc(S(=O)(=O)N4CCOCC4)c3)c(N3CCOCC3)cc2n1` [Example 14, N-(2-(2-(methylsulfonyl)ethyl)-6-morpholino-2H-indazol-5-yl)-3-(morpholinosulfonyl)benzamide] registered an inhibition at 0.1 µM of 21.1% and an inhibition at 1 µM of 35.6%. At IRAK1 enzyme, this compound showed an inhibition at 1 µM of 0%.

`CC(C)(O)CCn1cc2cc(NC(=O)c3cccc([N+](=O)[O-])c3)cc(-c3ccoc3)c2n1` [Example 16, N-(7-(furan-3-yl)-2-(3-hydroxy-3-methylbutyl)-2H-indazol-5-yl)-3-nitrobenzamide]: the inhibition at 0.1 µM on IRAK4 enzyme turned out to be 48.8%. Moreover, the inhibition at 1 µM on IRAK4 enzyme amounted to 71%; against IRAK1 enzyme, 17.2%.

`NC(=O)COCCn1cc2cc(NC(=O)c3cccc(S(N)(=O)=O)c3)c(N3CCOCC3)cc2n1` [Example 17, N-(2-(2-(2-amino-2-oxoethoxy)ethyl)-6-morpholino-2H-indazol-5-yl)-3-sulfamoylbenzamide]: at IRAK4 enzyme, half-maximal inhibition (IC50) required 330 nM and the inhibition at 0.1 µM is 76.7%. Besides, at IRAK1 enzyme, the inhibition at 0.1 µM amounted to 33.1% and the inhibition at 1 µM worked out at 63.4%.

With `NC(=O)COCCn1cc2cc(NC(=O)c3cccc(C(N)=O)c3)c(N3CCOCC3)cc2n1` [Example 18, N-(2-(2-(2-amino-2-oxoethoxy)ethyl)-6-morpholino-2H-indazol-5-yl)isophthalamide], the inhibition at 0.1 µM at IRAK4 enzyme came out at 54.8%. Also, the figures for the inhibition at 1 µM against IRAK4 enzyme and on IRAK1 enzyme were 65.6% and 23.2%, respectively.

On IRAK4 enzyme, `O=C(Nc1cc2cn(CCN3CCOCC3)nc2cc1N1CCOCC1)c1cccc([N+](=O)[O-])c1` [Example 19, N-(6-morpholino-2-(2-morpholinoethyl)-2H-indazol-5-yl)-3-nitrobenzamide] came in with an IC50 of 31.7 nM, an inhibition at 0.1 µM of 84.7% and an inhibition at 1 µM of 90.1%. Besides, 1 µM produced 38.7% inhibition on IRAK1 enzyme.

On to `CC(C)(O)CCn1cc2cc(NC(=O)c3cccc(-c4cn[nH]c4)n3)c(N3CCOCC3)cc2n1` [Example 20, N-(2-(3-hydroxy-3-methylbutyl)-6-morpholino-2H-indazol-5-yl)-6-(1H-pyrazol-4-yl)picolinamide], for which, at IRAK4 enzyme, the half-maximal inhibitory concentration (IC50) came out at 15.5 nM and the inhibition at 0.1 µM was found to be 89.6%. On IRAK1 enzyme, this compound yielded an inhibition at 0.1 µM of 16.5% and an inhibition at 1 µM of 57%.

Consider `CC(C)(O)CCn1cc2cc(NC(=O)c3cccc([N+](=O)[O-])c3F)c(N3CCOCC3)cc2n1` [Example 22, 2-fluoro-N-(2-(3-hydroxy-3-methylbutyl)-6-morpholino-2H-indazol-5-yl)-3-nitrobenzamide], for which, on IRAK4 enzyme, the IC50 was 40.3 nM and the inhibition at 0.1 µM was 88.3%. For the same compound, at IRAK1 enzyme, testing at 0.1 µM gave an inhibition of 30.3% and the inhibition at 1 µM came to 47.2%.

Turning to `CC(C)(O)CCn1cc2cc(NC(=O)c3cc(F)cc([N+](=O)[O-])c3)c(N3CCOCC3)cc2n1` [Example 24, 3-fluoro-N-(2-(3-hydroxy-3-methylbutyl)-6-morpholino-2H-indazol-5-yl)-5-nitrobenzamide], on IRAK4 enzyme, 13.1 nM corresponded to half-maximal inhibition (IC50) and testing at 0.1 µM gave an inhibition of 83.9%. Besides, at IRAK1 enzyme, the inhibition at 0.1 µM amounted to 26.9% and the inhibition at 1 µM was 45.5%.

Regarding `CC(C)(O)CCn1cc2cc(NC(=O)c3cccc(S(N)(=O)=O)c3)c(-c3ccc(C(=O)NCC(F)(F)F)cc3)cc2n1` [Example 42, N-(2-(3-hydroxy-3-methylbutyl)-6-(4-((2,2,2-trifluoroethyl)carbamoyl)phenyl)-2H-indazol-5-yl)-3-sulfamoylbenzamide], at 0.1 µM the inhibition at IRAK4 enzyme was 65.1%.

`CONC(=O)c1ccc(-c2cc3nn(CCC(C)(C)O)cc3cc2NC(=O)c2cccc(S(N)(=O)=O)c2)cc1` [Example 44, N-(2-(3-hydroxy-3-methylbutyl)-6-(4-(methoxycarbamoyl)phenyl)-2H-indazol-5-yl)-3-sulfamoylbenzamide] registered an inhibition at 0.1 µM at IRAK4 enzyme of 61.9%.

One may read the inhibition as the share of the control response that was lost under treatment. The term IC50 denotes the concentration at which inhibition is half-maximal. A low value points to greater potency in that assay.
